According to patent US20250041302A1, “PROLYL HYDROXYLASE DOMAIN INHIBITOR FOR TREATING HEMORRHAGIC OR BURN SHOCK” (THE GOVERNMENT OF THE UNITED STATES, AS REPRESENTED BY THE …, priority 2022, published 2025):
Entries after “also recorded” stand apart in the source; their conditions may differ.

Test system: rats with polytrauma and hemorrhagic shock
Assay: Oral PHDi prior to polytrauma/hemorrhage, pilot study (FIG. 3)
Format: in vivo, Sprague-Dawley rats
Protocol: FIG. 3. The effect of PHDi prior to polytrauma/hemorrhage on lactate level. PHDi (MK-8617, 1 mg/kg) or vehicle was orally applied in rats prior to trauma (n=3-4/group). The lactate in whole blood samples were collected at baseline (BSL), shed hemorrhage blood (HEM), 2- and 4 hours after trauma and measured by iSTAT. […] Values represent as means±SEM.
PHDi (MK-8617, 500 microgram per rat) was orally applied prior to trauma, and the lactate (measured by iSTAT) was measured at baseline, 2 and 4 hours after trauma.
Model-1, acute sub-lethal hemorrhagic shock with polytrauma (40% hemorrhage, fast speed hemorrhage at >1 ml/min, target MAP at 35-40 mmHg for 30 min): This model has intensive tissue damage and transient compensated hemorrhagic shock, and the animals survived for 4 hours after trauma without resuscitation or any intervention. The death occurs after 4 hours after trauma.
Briefly, Sprague-Dawley rats (350-450 gram) were anesthetized with isoflurane/100% oxygen through a nosecone and allowed to breathe spontaneously. Cannulas were placed in the left femoral artery and vein for measurement of arterial blood pressure and to obtain vascular access (blood draw and resuscitation and drug administration) respectively. Polytrauma was induced by laparotomy, crush injury to the small intestines, the left and medial liver lobes, and the right leg skeletal muscle and by fracture of the right femur. In detail, a midline incision was made through the abdominal skin and underlying muscle layers. A 10-cm section of small intestines was isolated just anterior to the cecum and run gently through a clamp covered with silastic tubing with a 2-mm distance between the clamps to cause a gentle crush injury. The right and medial lobes of the liver will receive three crushes to each lobe using the same clamp. The intestines and liver were replaced, and the abdominal incision was closed with sutures in two layers. To fracture the […], a modification of a 3-point impact device was used by dropping six stainless-steel balls (65 g each) stacked together, from 36 inches through a guide tube (1 inch internal diameter) to impact on a rounded aluminum blade resting on the mid-right femur with the right leg resting on two aluminum stands, one under the hip and one under the knee. A large hemostat (5 in tongs) was used to clamp the muscle of the right leg 10 times. The crush injury was intended to cause microvascular damage, as opposed to cutting, chopping, or mincing of the tissue, which would have led to uncontrolled hemorrhage. The polytrauma was performed about 10 min followed immediately by hemorrhage. […]
The lactate in whole blood samples were collected at baseline (BSL), shed hemorrhage blood (HEM), 2- and 4 hours after trauma, and the lactate was measured by iSTAT. […]

COc1ccc(C(NC(=O)c2cnc(-c3cccnn3)nc2O)c2ccc(OC)cc2)cc1 [MK-8617, N-[Bis(4-methoxyphenyl)methyl]-4-hydroxy-2-(pyridazin-3-yl)pyrimidine-5-carboxamide]
average levels of lactate attenuated as compared with vehicle (2 and 4 hr after trauma, oral prior to trauma): about 30%
survival (4 hours after trauma): all animals survived after 4 hours
lactate in whole blood (iSTAT) (4 hours after trauma, MK-8617 1 mg/kg orally prior to trauma, n=4): 2.365 ± 0.733 mmol/L
rise of lactate (oral MK-8617 1 mg/kg prior to trauma, 1 mg/kg): attenuated the rise of lactate; also recorded: mitigating the elevation of lactate; also recorded: attenuates lactate levels
